Patent US20230053493A1, “ONE STEP METHODS, KITS, AND SYSTEMS FOR THE MEASUREMENT OF CONCENTRATIONS OF UNBOUND BILIRUBIN IN BIOLOGICAL FLUIDS” (priority 2019, published 2023)

Experiments:
[1] = target: T1, Albumin (Homo sapiens, UniProt P02768); conditions: cefazolin 3.76 mM
[2] = target: T1, Albumin; test: Drug displacement of bilirubin from albumin / interference, Bf measured with one-step cartridges; assay type: in vitro ADME; conditions: percent increase of Bf for the 3x drug concentration relative to no drug; negative value = interference with the Bf sensor
Description: Premature infants who are at high risk for bilirubin neurotoxicity are of particular concern because NICU infants frequently receive medications. [Hsieh et al. Medication use in the neonatal intensive care unit. Am J Perinatol.

[3] = target: adult human albumin (Homo sapiens, UniProt P02768); conditions: high affinity site; read-out: equilibrium dissociation constant (Kd) of bilirubin for adult human albumin; cited from earlier work
adult human albumin, sequence (P02768 25-609): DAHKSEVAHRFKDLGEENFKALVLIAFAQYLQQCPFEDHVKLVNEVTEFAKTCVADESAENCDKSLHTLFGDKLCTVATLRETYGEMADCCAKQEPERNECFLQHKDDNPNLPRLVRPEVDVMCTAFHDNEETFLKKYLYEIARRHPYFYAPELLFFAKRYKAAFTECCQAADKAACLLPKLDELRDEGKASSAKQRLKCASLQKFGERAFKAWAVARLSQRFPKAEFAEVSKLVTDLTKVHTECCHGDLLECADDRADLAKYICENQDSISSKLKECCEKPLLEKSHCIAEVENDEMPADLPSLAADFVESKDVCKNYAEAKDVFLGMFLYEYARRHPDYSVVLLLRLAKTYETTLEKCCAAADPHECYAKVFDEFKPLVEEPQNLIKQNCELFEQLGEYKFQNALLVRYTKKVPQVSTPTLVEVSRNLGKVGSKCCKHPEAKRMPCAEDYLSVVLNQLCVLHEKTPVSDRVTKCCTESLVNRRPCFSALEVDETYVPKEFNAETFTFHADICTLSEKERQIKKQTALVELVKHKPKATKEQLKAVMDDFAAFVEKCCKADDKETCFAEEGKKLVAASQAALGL

[4] = Interference of conjugated bilirubin (ditaurobilirubin) with Bf measurement, UBCheck vs Arrows UA-2; parameters: species or system human
Protocol: The potential interference of conjugated bilirubin with the bilirubin probes is determined by measuring the effect of ditaurobilirubin on the ability of the UBCheck to measure Bf accurately. We also compared the UBCheck results with measurements using the Arrows UB analyzer UA-2 method. The measurements are performed by spiking neonatal serum with unconjugated bilirubin to yield a Bf of approximately 10 nM and then titrating the spiked sample with ditaurobilirubin up to 20 mg/dl (FIG. 7). At each step Bf is measured by UBCheck and Arrows and the direct (conjugated) bilirubin concentration is determined using a Sigma direct bilirubin kit. At zero ditaurobilirubin both UBCheck and Arrows yield Bf of 10 nM but the direct bilirubin measurement yields a non-zero value of about 0.5 mg/dl (FIG. 7). With increasing concentrations of ditaurobilirubin UBCheck is unchanged but Arrows increases starting at about 0.5 mg/dl of ditaurobilirubin and then increases rapidly until 4 mg/dl ditaurobilirubin where the Arrow's assay saturates at Bf ≥50 nM. In contrast, the UBCheck only begins to increase at 4 mg/dl ditaurobilirubin where its Bf increase to about 12 nM, a 20% increase from the initial 10 nM level, and only at 20 mg/dl ditaurobilirubin does Bf increase to 33 nM.

[5] = Effect of hemoglobin/hemolysate on UBCheck Bf measurement; parameters: species or system human; conditions: bilirubin spiked neonatal serum; hemoglobin concentrations at least as high as 4 g/l; cartridges with Hb blocking peptide
Protocol: After the Bf responder and non-responder probes are applied to the Ni-polystyrene beads, the peptide of Table 4 is added to the beads and is attached through double HIS tags to the bead's Ni-NTAs. The combined probes plus peptide beads are then spotted onto cartridges. The effect of whole blood hemolysate was tested by titrating bilirubin spiked neonatal serum with increasing hemoglobin concentrations.

[6] = Fluorescence intensities of Bf sensor with increasing total bilirubin (FIG. 1); assay type: binding; conditions: increasing BT; 675 nm excitation; probe 10 nM, free in aqueous buffer
Protocol: FIG. 1 depicts the intensities and ratios of intensities for a Bf sensor composed of the bilirubin responsive LICOR 700DX maleimide Mut:SEQ ID NO:2-76C probe (Table 1) and the bilirubin non-responder LICOR 800CW maleimide Mut:SEQ ID NO:1 B-73C probe (Table 2), both free in aqueous buffer, with increasing BT (total bilirubin) which at the concentrations used is primarily unbound bilirubin (Bf). Measurements of the 710 and 805 nm intensities at 675 nm excitation were performed at the probe concentrations of 1.5 nM and 10 nM, respectively in a Horiba Fluorolog 2.

[7] = Stability of non-responder probe 700/819 nm emission ratio in storage; assay type: physicochemical; conditions: at 1 and 6 days; absence of 700DX-maleimide
Description: All responder probes labeled with LICOR 700DX-maleimide and non-responder probes labeled with LICOR 800CW-maleimide probes in Tables 1 and 2, respectively have qualitatively similar dependencies on Bf. The probes differ mostly in protein expression, binding parameters (Kd, Ro and Rm) and stability. […] Although the non-responders are not characterized by bilirubin binding parameters, the emission spectrum of the 800CW-maleimide is sensitive to specific substitutions that can alter the LICOR 700DX-maleimide intensities. […] In some of these mutants the ratio of 700 to 819 nm increased from about 1% to 20% while in storage at 4° C. With suitable mutations this instability was eliminated.

T1 sequence (P02768 25-609): as above

Molecule: Cc1nnc(SCC2=C(C(=O)O)N3C(=O)[C@@H](NC(=O)Cn4cnnn4)[C@H]3SC2)s1 [Cefazolin]
- Bf larger in the UBCheck than Arrows [1]: ~5 fold

Molecule: NS(=O)(=O)c1cc(C(=O)O)c(NCc2ccco2)cc1Cl [Furosemide]
- Displacement or Interference [2]: 820%

Molecule: Cc1onc(-c2ccccc2)c1C(=O)N[C@@H]1C(=O)N2[C@@H]1SC(C)(C)[C@@H]2C(=O)O [Oxacillin]
- Displacement or Interference [2]: 616%

Molecule: CC(=O)S[C@@H]1CC2=CC(=O)CC[C@]2(C)[C@H]2CC[C@@]3(C)[C@@H](CC[C@@]34CCC(=O)O4)[C@H]12 [Spironolactone]
- Displacement or Interference [2]: −98%

Molecule: C=CC1=C(C)/C(=C/c2[nH]c(Cc3[nH]c(/C=C4\NC(=O)C(C)=C4C=C)c(C)c3CCC(=O)O)c(CCC(=O)O)c2C)NC1=O [bilirubin]
- Kd [3]: ~0.02 µM

Molecule: ditaurobilirubin
- Bf (assay saturates) ([4]; Arrows UA-2, samples diluted 52-fold, 4 mg/dl ditaurobilirubin): ≥ 50 nM
- increase of Bf from the initial 10 nM level ([4]; UBCheck, 4 mg/dl ditaurobilirubin): 20%
- Bf ([4]; UBCheck, 4 mg/dl ditaurobilirubin, neonatal serum spiked to Bf of approximately 10 nM): about 12 nM
- Bf ([4]; UBCheck, 20 mg/dl ditaurobilirubin): 33 nM

Molecule: hemoglobin
- Bf concentration relative to zero hemoglobin [5]: unaffected

B1: Mut:SEQ ID NO:1 B-73C: non-responder rat FABP mutein 20R 27A 29R 72A 73C 74F 100R 126W 131D-C2XH11 labeled with LICOR 800CW-maleimide (protein)
chain: AFDGTWKVDRNENYEKFMERMGINVVARRLGAHDNLKLTITQEGNKFTVKESSNFRNIDVVFELGVDFAYSACFGTELTGTWTMEGNKLVGKFKRVDNGRELIAVREISGNELIQTYTYEGVEAKWIFKKDRGAASHHHHHHSHRATPNTSPHHHHHHH
modifications: LICOR 800CW-maleimide label; nonresponder mutated probe
notes: non-responder rat FABP mutein 20R 27A 29R 72A 73C 74F 100R 126W 131D-C2XH11 labeled with LICOR 800CW-maleimide
- intensity change (cv) of LICOR 800CW maleimide measured at 805 nm [6]: 2.5%
- 700/819 ratio [7]: 1%
